Usually IC50 stands for the point on the concentration scale where inhibition reaches its midpoint.

The results in this text go back to US9458145B2, “Benzimidazole derivatives as bromodomain inhibitors” (Gilead Sciences, Inc., priority 2013, dated 2016).

Molecules are shown by their SMILES.

One assay has as its system MT-4 cells. The assay can be described thus: MT-4 proliferation assay. The format is cell-based, human. As to conditions: Homo sapiens, MT4, 120 h, read-out: MT4 Assay, (IC50, nM). The procedure:
MT-4 Proliferation Assay:
Compounds were tested in a standardized high-throughput 384-well assay format. Each compound was serially diluted 3-fold in 100% DMSO in polypropylene 384-well plates using a Biomek FX Workstation, and 0.4 μL compound added to an assay plate containing 40 μL RPMI media. Compounds were arranged in a horizontal pattern, with 10 concentrations per compound, and 8 compounds added per plate. Due to low DMSO tolerability, the final DMSO concentration never exceeded 0.5% (v/v). Each assay plate contained 10 μM Puromycin and 0.5% DMSO in RPMI-1640 as positive and negative controls respectively. MT-4 cells (HTLV-1 transformed, human T lymphoblastoid cells, NIH Aids Reagent program) were added in volumes of 35 μL per well and 2,000 cells per well using a Biotek uFlow Workstation (Biotek, Winooski, Vt.), and the plates subsequently incubated for 5 days at 37° C. in an incubator set at 5% CO2 and 90% humidity.
After 5 days, 22 μL Cell Titer Glo (Promega) was added to the assay plates with a Biotek uFlow Workstation. Plates were subsequently placed on a Perkin Elmer Envision Plate Reader for 5 minutes before the luminescence signal was read.
On to `Cc1noc(C)c1-c1cc(S(=O)(=O)NC2CCCC2)c2nc([S+](C)[O-])[nH]c2c1` (stereo not shown) [Compound 1020-5, N-Cyclopentyl-6-(3,5-dimethylisoxazol-4-yl)-2-(methylsulfinyl)-1H-benzo[d]imidazole-4-sulfonamide], for which the IC50 was 329 nM.

Staying with this assay, now noted: Homo sapiens, MT4, 120 h; Table 1; 5 days, Cell Titer Glo; method text calls it EC50; read-out: MT4 Assay, (IC50).
In the case of `Cc1noc(C)c1-c1cc(S(=O)(=O)NC2CCCC2)c2nc(NCC3CC3)[nH]c2c1` [Compound 1020-1, N-Cyclopentyl-2-(cyclopropylmethylamino)-6-(3,5-dimethylisoxazol-4-yl)-1H-benzo[d]imidazole-4-sulfonamide], the IC50 turned out to be 193 nM.
`CSc1nc2c(S(=O)(=O)NC3CCCC3)cc(-c3c(C)noc3C)cc2[nH]1` [Compound 1020-4, N-Cyclopentyl-6-(3,5-dimethylisoxazol-4-yl)-2-(methylthio)-1H-benzo[d]imidazole-4-sulfonamide]: the IC50 is 192 nM.
For the molecule `Cc1cnn(C)c1-c1cc(-c2c(C)noc2C)cc2nc(C3CC3)[nH]c12` [Compound 1020-12, 4-(2-Cyclopropyl-7-(1,4-dimethyl-1H-pyrazol-5-yl)-1H-benzo[d]imidazol-5-yl)-3,5-dimethylisoxazole], the IC50 came to 21.3 nM.
Consider `Cc1noc(C)c1-c1cc(-c2cccnc2-c2ccccc2)c2nc(C3CC3)[nH]c2c1` [Compound 1020-19, 4-(2-Cyclopropyl-4-(2-phenylpyridin-3-yl)-1H-benzo[d]imidazol-6-yl)-3,5-dimethylisoxazole], for which the IC50 is 24.4 nM.
As for `CC/C=C(\CC)c1cc(-c2c(C)noc2C)cc2nc(C3CC3)[nH]c12` [Compound 1020-28, (E)-4-(2-Cyclopropyl-4-(hex-3-en-3-yl)-1H-benzo[d]imidazol-6-yl)-3,5-dimethylisoxazole], the IC50 was 51.6 nM.
The same measure, in the same setting: as for `Cc1noc(C)c1-c1cc(/C=C/c2ccccc2)c2[nH]c(C3CC3)nc2c1` [Compound 1020-37, (E)-4-(2-cyclopropyl-4-styryl-1H-benzo[d]imidazol-6-yl)-3,5-dimethylisoxazole], the figure is 518 nM; as for `Cc1noc(C)c1-c1cc(C(C)c2ccc(F)cc2)c2[nH]c(C3CC3)nc2c1` (stereo not shown) [Compound 1020-44, 4-(2-Cyclopropyl-4-(1-(4-fluorophenyl)ethyl)-1H-benzo[d]imidazol-6-yl)-3,5-dimethylisoxazole], 86.1 nM; as for `Cc1noc(C)c1-c1cc(NC2CCCC2)c2nc(C3CC3)[nH]c2c1` [Compound 1020-50, N-Cyclopentyl-2-cyclopropyl-6-(3,5-dimethylisoxazol-4-yl)-1H-benzo[d]imidazol-4-amine], 353 nM.
Same read-out and setting: with `Cc1ccnc(C)c1-c1cc(-c2c(C)noc2C)cc2nc(C3CC3)[nH]c12` [Compound 1020-57, 4-(2-Cyclopropyl-7-(2,4-dimethylpyridin-3-yl)-1H-benzo[d]imidazol-5-yl)-3,5-dimethylisoxazole] the figure was 13.6 nM; with `Cc1n[nH]c(C)c1-c1cc(-c2c(C)noc2C)cc2nc(C3CC3)n(C)c12` [Compound 1020-72, 4-(2-cyclopropyl-7-(3,5-dimethyl-1H-pyrazol-4-yl)-1-methyl-1H-benzo[d]imidazol-5-yl)-3,5-dimethylisoxazole], 6.5 nM.
On the same count and under the same terms, with `Cc1ccc2ncccc2c1-c1cc(-c2c(C)noc2C)cc2nc(C3CC3)n(C)c12` [Compound 1020-74, 4-(2-Cyclopropyl-1-methyl-7-(6-methylquinolin-5-yl)-1H-benzo[d]imidazol-5-yl)-3,5-dimethylisoxazole] the figure was 15.3 nM.
Consider `Cc1nc2cc(-c3c(C)noc3C)cc(-c3c(C)n[nH]c3C)c2[nH]1` [Compound 1020-77, 4-(7-(3,5-Dimethyl-1H-pyrazol-4-yl)-2-methyl-1H-benzo[d]imidazol-5-yl)-3,5-dimethylisoxazole], for which the IC50 worked out at 39.4 nM.
Turning to `Cc1n[nH]c(C)c1-c1cc(-c2c(C)noc2C)cc2nc(C3CC3(F)F)[nH]c12` (stereo not shown) [Compound 1020-78, 4-(2-(2,2-Difluorocyclopropyl)-7-(3,5-dimethyl-1H-pyrazol-4-yl)-1H-benzo[d]imidazol-5-yl)-3,5-dimethylisoxazole], the IC50 was 25.7 nM.
On the same count and under the same terms, with `Cc1n[nH]c(C)c1-c1cc(-c2c(C)noc2C)cc2[nH]c(NCC3CC3)nc12` [Compound 1020-79, N-(Cyclopropylmethyl)-4-(3,5-dimethyl-1H-pyrazol-4-yl)-6-(3,5-dimethylisoxazol-4-yl)-1H-benzo[d]imidazol-2-amine] the figure was 33.8 nM; with `Cc1n[nH]c(C)c1-c1cc(-c2c(C)noc2C)cc2[nH]c(NC3CC3)nc12` [Compound 1020-81, N-Cyclopropyl-4-(3,5-dimethyl-1H-pyrazol-4-yl)-6-(3,5-dimethylisoxazol-4-yl)-1H-benzo[d]imidazol-2-amine], 7.6 nM; with `Cc1ccnc(C)c1-c1cc(-c2c(C)noc2C)cc2[nH]cnc12` [Compound 1020-84, 4-(4-(2,4-Dimethylpyridin-3-yl)-1H-benzo[d]imidazol-6-yl)-3,5-dimethylisoxazole], 236 nM.
For the molecule `Cc1ccc2ncccc2c1-c1cc(-c2c(C)noc2C)cc2[nH]c(-c3cnn(C)c3)nc12` [Compound 1020-88, 3,5-Dimethyl-4-(2-(1-methyl-1H-pyrazol-4-yl)-4-(6-methylquinolin-5-yl)-1H-benzo[d]imidazol-6-yl)isoxazole], the IC50 is 45.2 nM.
Consider `Cc1ccc2ncccc2c1-c1cc(-c2c(C)noc2C)cc2[nH]c(C(O)CCO)nc12` (stereo not shown) [Compound 1020-89, 1-(6-(3,5-dimethylisoxazol-4-yl)-4-(6-methylquinolin-5-yl)-1H-benzo[d]imidazol-2-yl)propane-1,3-diol], for which the IC50 is 104 nM.
Same read-out and setting: as for `COc1nc2c(-c3c(C)ccc4ncccc34)cc(-c3c(C)noc3C)cc2[nH]1` [Compound 1020-90, 4-(2-methoxy-4-(6-methylquinolin-5-yl)-1H-benzo[d]imidazol-6-yl)-3,5-dimethylisoxazole], the figure is 25 nM; as for `Cc1ccc2ncccc2c1-c1cc(-c2c(C)noc2C)cc2[nH]c(C(F)(F)F)nc12` [Compound 1020-92, 3,5-Dimethyl-4-(4-(6-methylquinolin-5-yl)-2-(trifluoromethyl)-1H-benzo[d]imidazol-6-yl)isoxazole], 73.1 nM.
Still for that read-out and setting: as for `Cc1n[nH]c(C)c1-c1cc(-c2c(C)noc2C)cc2nc(N)[nH]c12` [Compound 1020-96, 4-(3,5-Dimethyl-1H-pyrazol-4-yl)-6-(3,5-dimethylisoxazol-4-yl)-1H-benzo[d]imidazol-2-amine], the figure is 318 nM; as for `Cc1noc(C)c1-c1cc(C(O)(c2ccccc2)c2ccccc2)c2nc(C3CC3)[nH]c2c1` [Compound 1020-102, (2-Cyclopropyl-6-(3,5-dimethylisoxazol-4-yl)-1H-benzo[d]imidazol-4-yl)diphenylmethanol], 49.7 nM.
Still for that read-out and setting: with `CCC(CC)c1cc(-c2c(C)noc2C)cc2[nH]c(C3CC3)nc12` [Compound 1020-120, 4-(2-Cyclopropyl-4-(pentan-3-yl)-1H-benzo[d]imidazol-6-yl)-3,5-dimethylisoxazole] the figure was 48.8 nM.

The same assay, now with this note: Table 1; 5 days, Cell Titer Glo; method text calls it EC50; read-out: MT4 Assay, (IC50).
Take `Cc1n[nH]c(C)c1-c1cc(-c2c(C)noc2C)cc2[nH]c(C3CCC3)nc12` [Compound 1020-75, 4-(2-Cyclobutyl-4-(3,5-dimethyl-1H-pyrazol-4-yl)-1H-benzo[d]imidazol-6-yl)-3,5-dimethylisoxazole]: the IC50 was found to be 18.4 nM.
